According to patent US10435399B2, “HDAC6 inhibitory heterocyclic compound” (TAKEDA PHARMACEUTICAL COMPANY LIMITED, priority 2017, dated 2019):

target: T1, HDAC6 enzyme (Homo sapiens, UniProt Q9UBN7); assay: HDAC6 enzyme inhibitory activity (HDAC-Glo I/II Assay kit); type: biochemical; conditions: 10 μM; wells without enzyme = 100% inhibition; read-out: HDAC6 inhibitory rate (%) (10 μM)
T1 construct: transducing full length HDAC6 gene into Sf-9 insect cells; GST; purchased SignalChem; host or cells: Sf-9 insect cells
T1 sequence (Q9UBN7 1-1215): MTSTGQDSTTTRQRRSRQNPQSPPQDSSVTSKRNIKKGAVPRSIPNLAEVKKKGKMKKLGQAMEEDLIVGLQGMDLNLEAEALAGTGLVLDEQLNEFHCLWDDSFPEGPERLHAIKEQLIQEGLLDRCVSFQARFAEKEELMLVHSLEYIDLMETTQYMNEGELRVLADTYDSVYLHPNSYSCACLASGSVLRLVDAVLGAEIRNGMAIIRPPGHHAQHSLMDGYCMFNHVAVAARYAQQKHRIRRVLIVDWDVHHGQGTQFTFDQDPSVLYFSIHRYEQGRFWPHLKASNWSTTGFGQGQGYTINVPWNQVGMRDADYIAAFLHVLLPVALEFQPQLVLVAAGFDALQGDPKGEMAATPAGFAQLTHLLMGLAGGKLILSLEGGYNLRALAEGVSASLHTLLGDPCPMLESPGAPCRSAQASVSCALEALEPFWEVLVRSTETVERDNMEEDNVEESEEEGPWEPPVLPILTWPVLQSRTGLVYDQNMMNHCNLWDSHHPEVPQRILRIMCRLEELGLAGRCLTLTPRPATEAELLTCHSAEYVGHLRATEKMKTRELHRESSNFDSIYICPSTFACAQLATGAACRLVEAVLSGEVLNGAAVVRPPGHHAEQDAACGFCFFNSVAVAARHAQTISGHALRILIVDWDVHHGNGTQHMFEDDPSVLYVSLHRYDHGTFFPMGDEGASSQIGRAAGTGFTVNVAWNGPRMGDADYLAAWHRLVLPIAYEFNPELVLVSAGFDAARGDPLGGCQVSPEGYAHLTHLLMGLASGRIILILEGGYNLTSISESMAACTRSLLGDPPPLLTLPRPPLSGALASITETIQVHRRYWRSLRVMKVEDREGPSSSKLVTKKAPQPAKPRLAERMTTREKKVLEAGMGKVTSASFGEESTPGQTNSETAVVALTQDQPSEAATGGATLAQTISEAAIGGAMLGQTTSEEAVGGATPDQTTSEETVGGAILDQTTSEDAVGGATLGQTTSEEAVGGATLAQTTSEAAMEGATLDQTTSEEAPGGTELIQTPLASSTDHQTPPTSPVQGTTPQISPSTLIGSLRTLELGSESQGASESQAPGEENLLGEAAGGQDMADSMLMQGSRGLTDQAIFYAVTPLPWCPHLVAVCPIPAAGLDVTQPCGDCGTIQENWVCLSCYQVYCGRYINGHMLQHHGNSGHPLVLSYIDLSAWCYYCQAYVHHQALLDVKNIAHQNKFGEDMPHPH
Summary of the method: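 Luminescence read-out after 20 min reaction with HDAC-Glo substrate-developer, following 60 min room-temperature preincubation of compound with Sf-9-expressed, GST-purified full-length enzyme. Inhibition is relative to no-enzyme wells set as 100%.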

Row | Compound | inhibition at 10 µM
1 | O=C(N[C@@H]1CCCC[C@H]1N1Cc2ncc(-c3nnc(C(F)F)o3)cc2C1=O)c1ccccc1 [Example 465, N-((1R,2R)-2-(3-(5-(difluoro-methyl)-1,3,4-oxadiazol-2-yl)-5-oxo-5,7-dihydro-6H-pyrrolo[3,4-b]pyridin-6-yl)cyclohexyl) benzamide] | 99%
2 | O=C(Cc1ccccc1)N[C@@H]1CCCC[C@H]1N1Cc2ncc(-c3nnc(C(F)F)o3)cc2C1=O [Example 466, N-((1R,2R)-2-(3-(5-(difluoro-methyl)-1,3,4-oxadiazol-2-yl)-5-oxo-5,7-dihydro-6H-pyrrolo[3,4-b]pyridin-6-yl)cyclohexyl)-2-phenyl-acetamide] | 100%
3 | O=C1c2cc(-c3nnc(C(F)F)o3)ccc2CN1[C@@H]1CCC(F)(F)C[C@H]1NC(=O)C(F)(F)C(F)(F)F [Example 469, N-((1R,2R)-2-(6-(5-(difluoromethyl)-1,3,4-oxadiazol-2-yl)-1-oxo-1,3-dihydro-2H-isoindol-2-yl)-5,5-difluorocyclohexyl)-2,2,3,3,3-pentafluoropropanamide] | 99%
4 | CC(F)(F)C(=O)N[C@@H]1CC(F)(F)CC[C@H]1N1Cc2ccc(-c3nnc(C(F)F)o3)cc2C1=O [Example 470, N-((1R,2R)-2-(6-(5-(difluoromethyl)-1,3,4-oxadiazol-2-yl)-1-oxo-1,3-dihydro-2H-isoindol-2-yl)-5,5-difluorocyclohexyl)-2,2-difluoropropanamide] | 101%
5 | O=C1c2cc(-c3nnc(C(F)F)o3)ccc2CN1c1ccnn1-c1cccc(Cl)c1 [Example 472, 2-(1-(3-chloro-phenyl)-1H-pyrazol-5-yl)-6-(5-(difluoro-methyl)-1,3,4-oxadiazol-2-yl) isoindolin-1-one] | 100%
6 | O=C1c2cc(-c3nnc(C(F)F)o3)ccc2CN1c1ccnn1-c1ccc(F)cc1 [Example 473, 6-(5-(difluoro-methyl)-1,3,4-oxadiazol-2-yl)-2-(1-(4-fluoro-phenyl)-1H-pyrazol-5-yl) isoindolin-1-one] | 99%
7 | C[C@@H](c1ccccc1)N1Cc2ncc(-c3nnc(C(F)F)o3)cc2C1=O [Example 475, 3-(5-(difluoro-methyl)-1,3,4-oxadiazol-2-yl)-6-((1S)-1-phenylethyl)-6,7-dihydro-5H-pyrrolo [3,4-b]pyridin-5-one] | 100%
8 | C[C@H](c1ccccc1)N1Cc2ncc(-c3nnc(C(F)F)o3)cc2C1=O [Example 476, 3-(5-(difluoro-methyl)-1,3,4-oxadiazol-2-yl)-6-((1R)-1-phenylethyl)-6,7-dihydro-5H-pyrrolo [3,4-b]pyridin-5-one] | 100%
9 | O=C1c2cc(-c3nnc(C(F)F)o3)cnc2CN1Cc1ccccc1OCC(F)F [Example 478, 6-(2-(2,2-difluoroethoxy)benzyl)-3-(5-(difluoro-methyl)-1,3,4-oxadiazol-2-yl)-6,7-dihydro-5H-pyrrolo [3,4-b]pyridin-5-one] | 100%
10 | O=C1c2cc(-c3nnc(C(F)F)o3)cnc2CN1Cc1cccc(-c2cnn(C(F)F)c2)c1 [Example 479, 3-(5-(difluoro-methyl)-1,3,4-oxadiazol-2-yl)-6-(3-(1-(difluoro-methyl)-1H-pyrazol-4-yl)benzyl)-6,7-dihydro-5H-pyrrolo[3,4-b] pyridin-5-one] | 100%
11 | O=C1c2cc(-c3nnc(C(F)F)o3)ccc2CN1c1ccc(OC(F)(F)F)cc1Br [Example 483, 2-(2-bromo-4-(trifluoro-methoxy)phenyl)-6-(5-(difluoro-methyl)-1,3,4-oxadiazol-2-yl) isoindolin-1-one] | 91%
12 | COc1ccc(N2Cc3ccc(-c4nnc(C(F)F)o4)cc3C2=O)c(-c2ccccc2)c1 [Example 484, 6-(5-(difluoro-methyl)-1,3,4-oxadiazol-2-yl)-2-(5-methoxy-biphenyl-2-yl) isoindolin-1-one] | 100%
13 | O=C1c2cc(-c3nnc(C(F)F)o3)ccc2CN1c1ccc(OC(F)(F)F)cc1-c1ccccc1 [Example 485, 6-(5-(difluoro-methyl)-1,3,4-oxadiazol-2-yl)-2-(5-(trifluoro-methoxy)biphenyl-2-yl) isoindolin-1-one] | 100%
14 | O=C1c2cc(-c3nnc(C(F)F)o3)ccc2CN1c1ccc(F)cc1-n1cc(C2CC2)cn1 [Example 486, 2-(2-(4-cyclo-propyl-1H-pyrazol-1-yl)-4-fluorophenyl)-6-(5-(difluoro-methyl)-1,3,4-oxadiazol-2-yl) isoindolin-1-one] | 100%
15 | O=C1c2cc(-c3nnc(C(F)F)o3)ccc2CN1c1ccccc1Cc1ccccc1 [Example 487, 2-(2-benzyl-phenyl)-6-(5-(difluoro-methyl)-1,3,4-oxadiazol-2-yl) isoindolin-1-one] | 99%
16 | O=C1c2cc(-c3nnc(C(F)F)o3)ccc2CN1N1CCCCC1c1ccccc1 (centres unmarked) [Example 490, 6-(5-(difluoro-methyl)-1,3,4-oxadiazol-2-yl)-2-(2-phenyl-piperidin-1-yl) isoindolin-1-one] | 98%
17 | O=C1c2cc(-c3nnc(C(F)F)o3)ccc2CN1N1CCCC1c1ccccc1 (centres unmarked) [Example 491, 6-(5-(difluoro-methyl)-1,3,4-oxadiazol-2-yl)-2-(2-phenyl-pyrrolidin-1-yl) isoindolin-1-one] | 99%

The next lines start with the values.

Row | inhibition at 10 µM | Compound
18 | 101% | O=C1c2cc(-c3nnc(C(F)F)o3)ccc2CN1c1ccc(F)cc1-c1ccn[nH]1 [Example 467, 6-(5-(difluoro-methyl)-1,3,4-oxadiazol-2-yl)-2-(4-fluoro-2-(1H-pyrazol-5-yl)phenyl) isoindolin-1-one]
19 | 100% | Cn1cc(-c2cc(F)cc(C#N)c2)c(N2Cc3ccc(-c4nnc(C(F)F)o4)cc3C2=O)n1 [Example 468, 3-(3-(6-(5-(difluoro-methyl)-1,3,4-oxadiazol-2-yl)-1-oxo-1,3-dihydro-2H-isoindol-2-yl)-1-methyl-1H-pyrazol-4-yl)-5-fluoro-benzonitrile]
20 | 100% | Cn1cc(-c2cc(F)nc(F)c2)c(N2Cc3ccc(-c4nnc(C(F)F)o4)cc3C2=O)n1 [Example 471, 6-(5-(difluoro-methyl)-1,3,4-oxadiazol-2-yl)-2-(4-(2,6-difluoro-pyridin-4-yl)-1-methyl-1H-pyrazol-3-yl) isoindolin-1-one]
21 | 99% | Cn1cc(C2=CCC(F)(F)CC2)c(N2Cc3ccc(-c4nnc(C(F)F)o4)cc3C2=O)n1 [Example 474, 2-(4-(4,4-difluorocyclo-hex-1-en-1-yl)-1-methyl-1H-pyrazol-3-yl)-6-(5-(difluoro-methyl)-1,3,4-oxadiazol-2-yl) isoindolin-1-one]
22 | 95% | COc1ccc(N2Cc3ccc(-c4nnc(C(F)F)o4)cc3C2=O)c(Br)c1 [Example 477, 2-(2-bromo-4-methoxy-phenyl)-6-(5-(difluoro-methyl)-1,3,4-oxadiazol-2-yl) isoindolin-1-one]
23 | 101% | Cn1cc(C2CCC(F)(F)CC2)c(N2Cc3ccc(-c4nnc(C(F)F)o4)cc3C2=O)n1 [Example 480, 2-(4-(4,4-difluorocyclo-hexyl)-1-methyl-1H-pyrazol-3-yl)-6-(5-(difluoro-methyl)-1,3,4-oxadiazol-2-yl) isoindolin-1-one]
24 | 98% | Cn1cc(-c2cccc3ccnn23)c(N2Cc3ccc(-c4nnc(C(F)F)o4)cc3C2=O)n1 [Example 481, 6-(5-(difluoro-methyl)-1,3,4-oxadiazol-2-yl)-2-(1-methyl-4-(pyrazolo[1,5-a]pyridin-7-yl)-1H-pyrazol-3-yl)isoindolin-1-one]
25 | 100% | O=C1c2cc(-c3nnc(C(F)F)o3)ccc2CN1c1ccc(F)cc1-n1cc(Br)cn1 [Example 482, 2-(2-(4-bromo-1H-pyrazol-1-yl)-4-fluoro-phenyl)-6-(5-(difluoro-methyl)-1,3,4-oxadiazol-2-yl) isoindolin-1-one]
26 | 100% | CCc1cnn(-c2cc(F)ccc2N2Cc3ccc(-c4nnc(C(F)F)o4)cc3C2=O)c1 [Example 488, 6-(5-(difluoro-methyl)-1,3,4-oxadiazol-2-yl)-2-(2-(4-ethyl-1H-pyrazol-1-yl)-4-fluoro-phenyl) isoindolin-1-one]
